Calls of active or inactive are those of the source. The calls are words filed in the database; no cut-off is given here.
Key:
[1] = target: Voltage-gated inwardly rectifying potassium channel KCNH2 (Homo sapiens, UniProt Q12809); experiment: Inhibition of hERG expressed in CHO cells; format: toxicity, cell-based
[2] = system: Mus musculus; experiment: (§1) Reno-protective activity against CLP-induced acute kidney injury C57BL/6J mouse model assessed as decrease in Il1b gene expression in kidney at 20 mg/kg, ip administered twice at 30 mins prior to CLP operation and 8 hrs post-CLP operation and measured at 16 hrs post-CLP operation by RNA sequencing analysis; format: functional, organism-based; settings: time 16.5 hrs
[3] = Toxicity in C57BL/6J mouse assessed as pathological changes in liver at 20 mg/kg, ip administered twice at 0 hrs and 8 hrs and measured after 16 hrs by Hematoxylin-Eosin staining based analysis; format: organism-based; settings: in vivo
[4] = Cmax in BALB/c mouse at 10 mg/kg, ip measured for 24 hrs by LC-MS/MS analysis; format: ADME, organism-based; design: dose 10 mg/kg, time 24 hrs, route ip; settings: in vivo
[5] = system: THP-1; experiment: Inhibition of ATP-induced mitochondrial damage in human THP-1 cells at […] pretreated with compound for 3 hrs in presence of LPS followed by incubation with ATP for 1 hr by MitoTracker dye based fluorescence analysis; format: functional, cell-based; settings: dose 2.5 µM, time 4.0 hrs
[6] = system: Mus musculus; experiment: (§2) Reno-protective activity against CLP-induced acute kidney injury C57BL/6J mouse model assessed as decrease in KIM1 mRNA expression in kidney at 20 mg/kg, ip administered twice at 30 mins prior to CLP operation and 8 hrs post-CLP operation and measured at 16 hrs post-CLP operation by RT-qPCR analysis; format: functional, organism-based; settings: time 16.5 hrs
[7] = Clearance in BALB/c mouse at 10 mg/kg, po measured for 24 hrs by LC-MS/MS analysis; format: ADME, organism-based; settings: in vivo
[8] = AUC(0 to t) in BALB/c mouse at 10 mg/kg, iv measured for 24 hrs by LC-MS/MS analysis; format: ADME, organism-based; design: time 24 hrs, dose 10 mg/kg, route iv; settings: in vivo
[9] = system: Mus musculus; experiment: Reno-protective activity against ip dosed LPS-induced acute kidney injury C57BL/6J mouse model assessed as decrease in serum […] level administered twice at 30 mins prior to LPS challenge and 8 hrs post-LPS challenge and measured at 16 hrs post-LPS challenge; format: functional; settings: time 16.5 hrs, read-out: MED
[10] = Half life in BALB/c mouse at 10 mg/kg, ip measured for 24 hrs by LC-MS/MS analysis; format: ADME, organism-based; settings: in vivo
[11] = system: Mus musculus; experiment: as §1, with “Casp1” for “Il1b”; format: functional, organism-based; settings: time 16.5 hrs
[12] = system: HEK293; experiment: Cytotoxicity against human HEK293 cells transfected with mouse P2X7 receptor assessed as effect on cell viability at 1 to 4 uM incubated for 2 hrs by CCK8 assay; format: toxicity, cell-based; settings: hek293, 2 h, dose 1-4 µM
[13] = Clearance in BALB/c mouse at 10 mg/kg, iv measured for 24 hrs by LC-MS/MS analysis; format: ADME, organism-based; settings: in vivo
[14] = Half life in BALB/c mouse at 10 mg/kg, iv measured for 24 hrs by LC-MS/MS analysis; format: ADME, organism-based; settings: in vivo
[15] = system: THP-1; experiment: Inhibition of ATP-induced apoptosis in human THP-1 cells at 0.5 to […] pretreated with LPS for 3 hrs followed by incubation with compound for 40 mins followed by treatment with ATP for 6 hrs by CCK8 assay; format: functional, cell-based; settings: dose 0.5-2.5 µM, time 400.0 min
[16] = system: Mus musculus; experiment: Reno-protective activity against LPS-induced acute kidney injury C57BL/6J mouse model assessed as decrease in serum […] level at 10 mg/kg, ip administered twice at 30 mins prior to LPS challenge and 8 hrs post-LPS challenge and measured at 16 hrs post-LPS challenge; format: functional, organism-based; settings: time 16.5 hrs
[17] = system: Mus musculus; experiment: as §2, with “cleaved caspase 1 (p20) protein” for “KIM1 mRNA”, “western blot” for “RT-qPCR”; format: functional, organism-based; settings: time 16.5 hrs
[18] = target: Cytochrome P450 2D6 (Homo sapiens, UniProt P10635); experiment: Inhibition of CYP2D6 in human liver microsomes using dextromethorphan as substrate upto 100 uM incubated for 10 mins in presence of NADPH by LC-MS/MS analysis; format: ADME, Microsome
Cytochrome P450 2D6, sequence (P10635 whole entry): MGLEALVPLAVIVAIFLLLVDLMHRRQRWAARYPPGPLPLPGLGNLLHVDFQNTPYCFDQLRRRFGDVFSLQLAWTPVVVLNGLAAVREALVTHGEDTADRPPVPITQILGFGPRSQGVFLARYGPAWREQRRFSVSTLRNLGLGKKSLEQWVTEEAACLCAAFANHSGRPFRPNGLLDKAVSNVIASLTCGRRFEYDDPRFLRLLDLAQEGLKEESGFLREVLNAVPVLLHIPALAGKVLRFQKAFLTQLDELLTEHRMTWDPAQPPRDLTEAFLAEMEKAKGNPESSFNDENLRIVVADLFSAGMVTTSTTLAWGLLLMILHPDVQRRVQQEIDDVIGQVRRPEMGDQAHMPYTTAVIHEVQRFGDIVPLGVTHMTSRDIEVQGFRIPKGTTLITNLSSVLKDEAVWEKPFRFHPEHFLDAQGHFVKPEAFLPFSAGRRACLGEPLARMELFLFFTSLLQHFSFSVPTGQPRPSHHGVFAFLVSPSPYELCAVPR

[19] = system: Mus musculus; experiment: as §2, with “NLRP3” for “KIM1”; format: functional, organism-based; settings: time 16.5 hrs
[20] = system: Mus musculus; experiment: Reno-protective activity against LPS-induced acute kidney injury C57BL/6J mouse model assessed as decrease in NGAL mRNA expression in kidney at 5 to 20 mg/kg, ip administered twice at 30 mins prior to LPS challenge and 8 hrs post-LPS challenge and measured at 16 hrs post-LPS challenge by RT-qPCR analysis; format: functional, organism-based; settings: dose 5-20 mg/kg, time 16.5 hrs
[21] = target: T1, P2X purinoceptor 7 (Homo sapiens, UniProt Q99572); experiment: Antagonist activity at P2X7 receptor in human THP-1 cells assessed as inhibition of ATP-induced IL-1beta secretion pretreated with LPS for 3 hrs followed by incubation with compound for 40 mins followed by treatment with ATP for 1 hr by ELISA; format: cell-based
T1 sequence (Q99572 whole entry): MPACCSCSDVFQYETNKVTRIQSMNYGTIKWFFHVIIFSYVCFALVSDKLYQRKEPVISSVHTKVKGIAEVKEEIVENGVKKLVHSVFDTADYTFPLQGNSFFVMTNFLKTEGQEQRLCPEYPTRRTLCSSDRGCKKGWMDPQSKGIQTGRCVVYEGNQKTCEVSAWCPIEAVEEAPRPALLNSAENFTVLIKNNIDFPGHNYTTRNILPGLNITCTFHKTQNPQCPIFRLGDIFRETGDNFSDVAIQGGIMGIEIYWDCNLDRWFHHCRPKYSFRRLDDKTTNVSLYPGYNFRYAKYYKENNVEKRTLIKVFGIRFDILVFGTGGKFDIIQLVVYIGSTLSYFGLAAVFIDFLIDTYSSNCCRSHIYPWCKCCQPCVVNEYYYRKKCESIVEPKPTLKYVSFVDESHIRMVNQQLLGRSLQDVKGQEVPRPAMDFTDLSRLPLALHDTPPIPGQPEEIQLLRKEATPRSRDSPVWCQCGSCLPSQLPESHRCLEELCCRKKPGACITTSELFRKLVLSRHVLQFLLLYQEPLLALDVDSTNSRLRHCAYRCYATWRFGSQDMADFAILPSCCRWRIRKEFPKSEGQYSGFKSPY

[22] = system: THP-1; experiment: Effect on P2X7 receptor expression in human THP-1 cells at 0.1 to […] pretreated with LPS for 3 hrs followed by incubation with compound for 40 mins followed by treatment with ATP for 1 hr by western blot analysis; format: functional, cell-based; settings: dose 0.1-2.5 µM, time 100.0 min
[23] = system: Mus musculus; experiment: as §2, with “IL-1 beta” for “KIM1”; format: functional, organism-based; settings: time 16.5 hrs
[24] = AUC(0 to t) in BALB/c mouse at 10 mg/kg, po measured for 24 hrs by LC-MS/MS analysis; format: ADME, organism-based; design: time 24 hrs, dose 10 mg/kg, route po; settings: in vivo
[25] = Half life in mouse liver microsomes; format: ADME, Microsome

Voltage-gated inwardly rectifying potassium channel KCNH2, sequence (Q12809 whole entry): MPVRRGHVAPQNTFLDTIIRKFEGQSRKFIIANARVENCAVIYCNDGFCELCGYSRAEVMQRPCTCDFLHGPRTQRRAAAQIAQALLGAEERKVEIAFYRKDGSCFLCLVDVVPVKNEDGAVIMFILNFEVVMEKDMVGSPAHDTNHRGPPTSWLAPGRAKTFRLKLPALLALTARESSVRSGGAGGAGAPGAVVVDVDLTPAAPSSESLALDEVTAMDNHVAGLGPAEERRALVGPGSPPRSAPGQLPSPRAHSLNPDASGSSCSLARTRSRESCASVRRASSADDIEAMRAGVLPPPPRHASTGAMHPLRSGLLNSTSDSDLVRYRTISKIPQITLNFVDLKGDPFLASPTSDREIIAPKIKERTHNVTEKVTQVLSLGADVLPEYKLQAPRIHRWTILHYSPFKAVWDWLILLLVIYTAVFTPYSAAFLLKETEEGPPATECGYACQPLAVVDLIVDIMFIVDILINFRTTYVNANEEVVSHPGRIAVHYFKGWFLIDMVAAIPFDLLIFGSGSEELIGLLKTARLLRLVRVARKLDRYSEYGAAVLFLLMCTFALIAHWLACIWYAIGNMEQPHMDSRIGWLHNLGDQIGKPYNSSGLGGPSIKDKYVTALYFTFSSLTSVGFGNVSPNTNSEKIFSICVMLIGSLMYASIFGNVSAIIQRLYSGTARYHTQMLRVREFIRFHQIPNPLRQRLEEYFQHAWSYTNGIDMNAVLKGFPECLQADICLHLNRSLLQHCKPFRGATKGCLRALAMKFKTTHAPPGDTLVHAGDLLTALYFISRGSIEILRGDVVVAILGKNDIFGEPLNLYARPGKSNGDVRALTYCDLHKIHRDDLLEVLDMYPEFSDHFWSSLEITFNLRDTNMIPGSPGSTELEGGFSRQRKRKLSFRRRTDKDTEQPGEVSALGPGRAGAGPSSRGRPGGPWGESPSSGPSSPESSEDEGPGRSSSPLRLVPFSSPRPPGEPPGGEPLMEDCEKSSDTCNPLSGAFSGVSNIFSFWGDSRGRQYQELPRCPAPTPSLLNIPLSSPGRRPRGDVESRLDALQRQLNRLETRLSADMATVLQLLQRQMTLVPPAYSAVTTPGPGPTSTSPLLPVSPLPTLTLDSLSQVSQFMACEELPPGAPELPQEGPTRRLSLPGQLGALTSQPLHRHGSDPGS

Compound: CS(=O)(=O)c1ccc(-c2nc(C(=O)NCc3cn(-c4cc(Br)ccn4)nn3)cs2)cc1
- IC50 [1]: > 30 µM
- Activity [2]: Active
- Activity [3]: Non-Toxic
- Cmax [4]: 1.07 µg/mL
- inhibition [5]: Active
- Activity [6]: Active
- CL/F [7]: 1.55 L/h/kg
- AUC(0-t) at 24 h [8]: 16.6 µg·h/mL
- minimal effective dose [9]: 5 mg/kg
- half-life [10]: 6.12 h
- Activity [11]: Active
- Activity [12]: Non-Toxic
- clearance [13]: 0.59 L/h/kg
- half-life [14]: 5.31 h
- inhibition [15]: Active
- Activity [16]: Active
- Activity [17]: Active
- inhibition (INH) [18]: Not Active
- Activity [19]: Active
- Activity [20]: Dose-Dependent Effect
- IC50 [21]: 0.327 µM
- Activity [22]: inactive
- Activity [23]: Active
- AUC(0-t) at 24 h [24]: 6.51 µg·h/mL
- half-life [25]: > 2 h

— ChEMBL document CHEMBL5360655, “Design, Synthesis, and Biological Evaluation of Novel P2X7 Receptor Antagonists for the Treatment of Septic Acute Kidney Injury” (J Med Chem, 2023)
